Marks after values point to notes of the source that are not given here.
Legend:
[1] = test system: cells isolated from granulation tissue; experiment: Dexamethasone treatment of cells from granulation tissue (wound chambers), assays for phenotypes; format: cell-based, rat
[2] = test system: Swiss-3T3 cells; experiment: Dexamethasone treatment of Swiss-3T3 cells, assay of phenotypes; format: cell-based, mouse
Method: Frozen 3T3 cells were then thawed, cell viability was determined using 0.4% Typan Blue in PBS with a hemocytometer (Denhardt et al., 1991; Domin and Rozengurt, 1993), and the cells were plated in 24 well plates (Corning Glassworks, Corning, N.Y.), precoated with 1% gelatin at a density of 5000 cells/well. Cells were cultured in EMEM containing 10% horse serum and varying concentrations of dexamethasone (Sigma, Salom, Mo.). Four wells served as controls and received medium without dexamethasone. Four wells each received medium containing 10^−10 M, 10^−9 M, 10^−8 M, 10^−7 M, 10^−6 M dexamethasone. The medium was changed every other day and cultures were examined using phase contrast microscopy for the appearance of different phenotypes.
• Bone—The presence of calcified tissue was assayed by Von Kossa's staining of calcium phosphate as described by Humason. Briefly, the culture medium was removed, and the plates were rinsed twice with the DPBS. The cells were fixed with 0.5 ml of 10% formalin for 3-5 minutes, then rinsed four times with distilled water. One half of a milliliter of freshly prepared 2% silver nitrate solution was then added, and the cells were incubated in the dark for 10 minutes. After incubation, the silver nitrate solution was removed and the cells were rinsed five times with distilled water. Approximately 0.5 ml of distilled water was left on each well. The plate was exposed to bright light for 15 minutes against a white background to reflect light. The plates were again rinsed five times with distilled water and quickly dehydrated with 100% ethanol. The plates were made permanent with glycerin jelly. Confirmation of the presence of calcium phosphate was performed by pretreating selected cultures with 1% weight/volume [ethylene bis(oxyethylenenitrilo)]-tetraacetic acid, a specific calcium chelator, in Ca, MG-free buffer for 1 hour before incubation in the silver nitrate solution. • Muscle—The cells were stained with the MF-20 antibody to sarcomeric myosin (Hybridoma Bank, Ames Iowa) by means of a modified procedure of Young et. al., 1992b. […]

[3] = test system: pluripotent stem cells; experiment: Proliferation and phenotypic responses to bioactive factors: pluripotent cells; format: cell-based; conditions: for Phenotypic Expression, Pluripotent: presence and approximate distribution of differentiated phenotypes within the culture wells
Description: (§1) Having access to mixed populations of progenitor stem cells, progenitor stem cell clones, and pluripotent stem cell clones permits one to address the influence of various bioactive factors (e.g. recombinant growth factors, purified compounds, and novel inductive factors) on the growth characteristics and phenotypic expression of these stem cells.
(§2) Cryopreserved cells are thawed and plated in MSC-1 at 5, 10, or 20×10^3 cells per well of gelatinized 24-well plates following the standard protocol. Twenty-four hours after initial plating the medium is changed to testing medium (TM) 1 to 6 (TM-1, TM-2, TM-3, TM-4, TM-5, or TM-6). TM-1 to TM-4 consist of Ultraculture (cat. no. 12-725B, lot. nos. OMO455 [TM-1], 1M1724 [TM-2], 2M0420 [TM-3], or 2M0274 [TM-4], Bio-Whittaker, Walkersville, Md.), medium (EMEM or Opti-MEM 0.01 mM β-mercaptoethanol), and 1% (v/v) antibiotic-antimycotic, pH 7.4. TM-5 consists of 98% (v/v) medium, 1% (v/v) HS, and 1% (v/v) antibiotic-antimycotic, pH 7.4. TM-6 consists of 98.5% (v/v) medium, 0.5% (v/v) HS, and 1% (v/v) antibiotic-antimycotic, pH 7.4. […] Four testing media (TM#'s 1-4), each containing various concentrations of Ultraculture, were used as. […] The four Ultraculture-based testing media were: TM-1=15% (v/v) Ultraculture (Lot no. OMO455): 84% (v/v) medium: 1% (v/v) antibiotics; TM-2=15% (v/v) Ultraculture (Lot no. 1M1724): 84% (v/v) medium: 1% (v/v) antibiotics; TM-3=50% (v/v) Ultraculture (Lot no. 2M0420): 49% (v/v) medium: 1% (v/v) antibiotics; and TM-4=75% (v/v) Ultraculture (Lot no. 2M0274): 24% (v/v) medium: 1% (v/v) antibiotics. Pre-incubation for 24 hr in testing medium alone is used to wash out any potential synergistic components in the MSC-1 medium. Twenty-four hours later the testing medium is changed to one of the following. For controls, TM-1 to TM-6 alone is used. To identify clones of progenitor cells, the medium is replaced with TM-1 to TM-6 containing 2 μg/ml insulin (Sigma), an agent that accelerates the appearance of phenotypic expression markers in progenitor cells (TABLE 12). To identify clones of pluripotent cells, the medium is replaced with TM-1 to TM-6 containing 10^−10 to 10^−6 M dexamethasone (Sigma), a general non-specific lineage-inductive agent (TABLE 13). Control and treated cultures are propagated for an additional 30-45 days with medium changes every other day. Four culture wells are used per concentration per experiment. During the 0-45 day time period the cultures are examined subjectively for changes in morphological characteristics on a daily basis. Alterations in phenotypic expression are correlated with the days of treatment and associated insulin or dexamethasone concentrations. The experiment is then repeated utilizing these parameters to confirm objectively the phenotypic expression markers using established histological, functional/histochemical, ELICA/flow cytometry, and molecular assays (TABLE 13).

[4] = test system: progenitor stem cells; experiment: Proliferation and phenotypic responses to bioactive factors: progenitor cells; format: cell-based; conditions: for Phenotypic Expression, Progenitor: presence and approximate distribution of differentiated phenotypes within the culture wells
Description: as §1, §2

[5] = test system: cardiac myocytes; experiment: Beat rate of binucleated beating cells in dexamethasone-treated Swiss-3T3 cultures exposed to isoproterenol and propanolol; format: cell-based, mouse
Description: The wells were then washed six times with EMEM+10% horse serum and viewed on a Nikon Diaphot with fluorescent attachment. • Cardiac muscle—Cardiac myocytes were identified based on their large binucleated nuclei and their reactions to inotropic and chronotropic agents.

Compound	dexamethasone concentrations at which cartilage nodules appeared [1]	dexamethasone concentrations at which fibroblasts appeared ([1]; after 3 weeks)	dexamethasone concentrations at which adipocytes appeared ([1]; first appeared at 2 weeks)	dexamethasone concentration at which binucleated beating cells appeared ([2]; 4 weeks in culture)	dexamethasone concentration at which myotubes appeared ([2]; 14 days)	dexamethasone concentration at which most adipocytes appeared ([2]; after two weeks treatment)	Proliferation, Pluripotent: number of times the agent increased the DNA content per well versus its respective control [3]	Proliferation, Progenitor: number of times the agent increased the DNA content per well versus its respective control [4]	activity on pluripotent and progenitor stem cells, in words [3]	Phenotypic Expression, Pluripotent [3]	Phenotypic Expression, Progenitor [4]	beat rate ([5]; cells treated with 10^−6 M isoproterenol) [beats per minute]	Beats per minute ([5]; n = 5, 10−6M)
C[C@@H]1C[C@H]2[C@@H]3CCC4=CC(=O)C=C[C@]4(C)[C@@]3(F)[C@@H](O)C[C@]2(C)[C@@]1(O)C(=O)CO [Dex, dexamethasone]	10^−9-10^−6 M	10^−9-10^−7 M	10^−8-10^−6 M	10^−7-10^−6 M	10^−9-10^−6 M	10^−8-10^−6 M	−	−					
IGF-II: insulin-like growth factor-II							1 times	1 times	stimulated lineage-progression in all progenitor cells, but had no measurable effect on pluripotent cells	0	All+++		
CC(C)NCC(O)c1ccc(O)c(O)c1 (stereo not shown) [Isoproteronol, isoproterenol]												85	87.4± * Beats per minute
PDGF-BB: platelet-derived growth factor-BB							19 times	19 times	stimulated proliferation in pluripotent cells and in all lineages of progenitor cells	0	All+		
IGF-I: insulin-like growth factor-I							1 times	1 times	stimulated lineage-progression in all progenitor cells, but had no measurable effect on pluripotent cells	0	All+++		
b-FGF: Basic-fibroblast growth factor							1 times	1 times	stimulated lineage-progression in fibrogenic progenitor cells, inhibited lineage-progression in all other progenitor cells, and had no effect on pluripotent cells	0	F++		
TGF-β							−^c	−	stimulated lineage-progression in fibrogenic progenitor cells, inhibited lineage-progression in all other progenitor cells, and had no effect on pluripotent cells	0	F++		
PDGF-AA: Platelet-derived growth factor-AA							16^b times	16 times	stimulated proliferation in pluripotent cells and in all lineages of progenitor cells	0	All+		

Reference: patent US10160948B2, “Pluripotent embryonic-like stem cells, compositions, methods and uses thereof” (ABT HOLDING COMPANY, priority 1999, dated 2018)
